Results: ChEMBL document CHEMBL1138554, “Synthesis and QSAR evaluation of 2-(substituted phenyl)-1H-benzimidazoles and [2-(substituted phenyl)-benzimidazol-1-yl]-pyridin-3-yl-methanones” (Eur J Med Chem, 2009)

How the values were obtained:
[1] = Octanol-water partition coefficient, log P of the compound; format: physicochemical
[2] = tested on: Aspergillus niger; experiment: Antifungal activity against Aspergillus niger at 25 degC after 7 days by tube dilution method; format: functional; parameters: unit not given here
[3] = tested on: Bacillus subtilis; experiment: Antimicrobial activity against Bacillus subtilis at 37 degC after 24 hrs by tube dilution method; format: functional; parameters: unit not given here
[4] = tested on: Candida albicans; experiment: Antifungal activity against Candida albicans at 37 degC after 48 hrs by tube dilution method; format: functional; parameters: unit not given here
[5] = tested on: Escherichia coli; experiment: Antimicrobial activity against Escherichia coli at 37 degC after 24 hrs by tube dilution method; format: functional; parameters: unit not given here
[6] = tested on: Staphylococcus aureus; experiment: Antimicrobial activity against Staphylococcus aureus at 37 degC after 24 hrs by tube dilution method; format: functional; parameters: unit not given here

Structure (SMILES)	logP [1]	-logMIC [2]	-logMIC [3]	-logMIC [4]	-logMIC [5]	-logMIC [6]
c1ccc(-c2nc3ccccc3[nH]2)cc1	3.11	1.49	1.68	1.49	1.72	1.46
COc1ccccc1-c1nc2ccccc2[nH]1	2.86	1.35	1.71	1.25	1.65	1.5
O=[N+]([O-])c1ccccc1-c1nc2ccccc2[nH]1	3.07	1.58	1.73	1.58	1.35	1.17
Oc1ccc(-c2nc3ccccc3[nH]2)cc1	2.83	1.33	1.79	1.43	1.7	1.53
O=C(c1cccnc1)n1c(-c2ccccc2Cl)nc2ccccc21	4.7	1.43	1.43	1.73	1.65	1.73
Clc1ccccc1-c1nc2ccccc2[nH]1	3.63	1.26	1.49	1.26	1.49	1.4
Clc1ccc(-c2nc3ccccc3[nH]2)cc1	3.63	1.4	1.51	1.56	1.66	1.66
Clc1cccc(-c2nc3ccccc3[nH]2)c1	3.63	1.36	1.49	1.26	1.65	1.49
O=C(c1cccnc1)n1c(-c2ccccc2[N+](=O)[O-])nc2ccccc21	4.13	1.44	1.5	1.74	1.5	1.5
O=[N+]([O-])c1ccc(-c2nc3ccccc3[nH]2)cc1	3.07	1.58	1.78	1.58	1.2	1.01
O=C(c1cccnc1)n1c(-c2cccc(Cl)c2)nc2ccccc21	4.7	1.43	1.5	1.73	1.8	1.79
O=[N+]([O-])c1cccc(-c2nc3ccccc3[nH]2)c1	3.07	1.58	1.72	1.58	1.41	1.47
O=C(O)c1ccccc1-c1nc2ccccc2[nH]1	2.81	1.28	1.7	1.48	1.7	1.5
O=C(c1cccnc1)n1c(-c2ccc([N+](=O)[O-])cc2)nc2ccccc21	4.13	1.44	1.44	1.74	1.44	1.44
O=C(c1cccnc1)n1c(-c2cccc([N+](=O)[O-])c2)nc2ccccc21	4.13	1.44	1.44	1.74	1.44	1.44
COc1ccccc1-c1nc2ccccc2n1C(=O)c1cccnc1	3.93	1.42	1.42	1.72	1.6	1.42
O=C(c1cccnc1)n1c(-c2ccc(O)cc2)nc2ccccc21	3.89	1.4	1.57	1.7	1.8	1.7
O=C(c1cccnc1)n1c(-c2ccc(Cl)cc2)nc2ccccc21	4.7	1.43	1.43	1.73	1.73	1.73
O=C(O)c1ccccc1-c1nc2ccccc2n1C(=O)c1cccnc1	4.13	1.44	1.44	1.74	1.44	1.44
O=C(O)c1cn(C2CC2)c2cc(N3CCNCC3)c(F)cc2c1=O [CIPROFLOXACIN]			3.33			3.33
OC(Cn1cncn1)(Cn1cncn1)c1ccc(F)cc1F [FLUCONAZOLE]		2.64		2.64	3.33	
